Assay results taken from publication PMC5379745, “Coordinating antigen cytosolic delivery and danger signaling to program potent cross-priming by micelle-based nanovaccine” (Cell Discovery, 2017).

Legend:
[1] = system: TC-1 cells; experiment: Vaccination combined with cisplatin chemotherapy, TC-1 tumors; type: in vivo, C57BL/6 mice; details: cisplatin 5 mg/kg i.v. three times, vaccine s.c. three times, with high dose tumor re-challenge, n=10
Method: To detect the LN targeting deliver y of pol ypeptide antigens by micelle, C57BL/6 mice were subcutaneousl y injected with 14.6 nmol different formulations of RhB labeled E7 peptide (E7, Pal-E7 and M-E7) at tail base. The DLNs were ex cised and digested into single cell suspension at 24h post-injection, the RhB+ DCs and Macrophages cells wer e detected b y flo w c ytom etr y.
Vaccination combined with cisplatin chemotherapy
C57BL/6 mice were inoculated subcutaneousl y with 5×10^4 TC-1 tumor cells. Two weeks later when the tumor volume reached 100 mm3 (day 0), tumor -bearing mice were treated with cisplatin (5mg/kg bod y weight) intravenousl y for three times at 5 days interval. On the same day of the last chemotherap y, mice were vaccinated subcutaneousl y with micelle vaccine or normal saline (NS) for three times at 7da ys interval. Tumor growth and tumor free rate was monitored twice per week.
Vaccination co mbined w ith surgical operation
C57BL/6 mice were injected subcutaneousl y on the right flank with 5×10^4 TC-1 tumor cells. One month later when the volume of tumor reached 1000mm 3 (day 0), mice were anesthetized and full resection was executed by excising the tumor using standard blunt dissection. Sterile silk sutures were used to close wounds.
Accompanied b y wound closure, mice were vaccinated subcutaneousl y with micelle vaccine or NS for three times at 7 days interval. […]

[2] = In vivo imaging (IVIS) of lymphatic trafficking; set-up: species or system C57BL/6 mice; details: subcutaneous at tail base, 15 μmol FITC, 0 to 168 h
Excerpt: C57BL/6 mice were subcutaneously injected with 15 μmol (FITC) of different FITC-labeled formulations (FITC, F-L, F-M) at tail base. The diffusion from injection sites was detected using an in vivo imaging system (IVIS) (Caliper life Sciences, Hopkinton, MA, USA). Spectrum unmixing technique was applied to reducing the effect of native tissue auto-fluorescence, separating detecting fluorescence and analyzing fluorescence diffusion. For imaging on inguinal and axillary LNs, LNs were excised and imaged at indicated time points. An image set (Ex: 500, Em: 540, f4, bin 8, 2 s) was collected. Living Image software Version 4.4 (Caliper Life Sciences, Waltham, MA, USA) was used to acquire and quantify the fluorescence imaging data sets.

[3] = system: DC2.4 cells; experiment: Confocal imaging of intracellular localisation of RhB-labeled peptides; type: cell-based, mouse (C57BL/6); details: 20 μM RhB-labeled peptide, 37 °C, 30 min (legend; text says 2 h), LysoTracker Green or EGFP-Rab5, confocal, three independent experiments
Method: DC2.4 cells or EGFP-Rab5 expressing DC2.4 cells were seeded in 35 mm glass-bottom plates. After overnight culture, different formulations of indicated Rhodamine-labeled peptides (20 μM) were added and incubated at 37 °C for 30 min or 2 h. Then, 100 nM Lyso-Tracker Green or ER-Tracker Green (Life Technologies, Grand Island, NY, USA) was added and incubated for 5 or 20 min, respectively. The processes of PEG-PE inserting into cell membranes, peptide internalization and the co-localization of peptides with early endosome (Rab5), lysosome or ER were imaged using a confocal microscope LSM-700 (ZEISS, Germany).
TC-1, a tumor cell line transformed from C57BL/6 primar y mouse lung cells, was kindly provided b y Dr. Xuemei Xu (Institute of Basic Medical Sciences Chinese Academ y of Medical Sciences & School of Basic Medicine, Peking Union Medical College, Beijing, China). DC2.4, an immortalized DC cell line derived from C57BL/6 mice, was kindl y provided by Dr. Li Tang (Ke y Laborator y of Protein Engineering, Academ y of Military Medical Sciences, Beijing, China). RAW 264.7, a macrophage like cell line derived from BALB/c mice, was purchased from the Type Culture Collection of the Chinese Academ y of Sciences (Shanghai, China). MC38 is a murine colon adenocarcinoma cell line. MC38- OVA was sorted and subcloned after MC38 cells were stable transduced with retrovirus expressing mouse […]–O T I.
B16-F10 murine melanoma cell line was originally obtained from ATCC, catalog no.
CRL-6475. All cells were cultured in complete RPMI1640 medium according to […]
Preparation of PE G-PE micellized antigenic peptides
Briefl y, peptides (HPV16 E7 43-62 , O VA 250-264 , sCT) or Rhodamine labeled peptides (RhB-peptide) were dissolved in methanol, respectivel y. Then the three peptides were respectively mixed with corresponding amount PEG 2000 -PE or FITC labeled PEG 2000 -PE(FITC-PP) which was dissolved in chloroform in a 1/10 molar ratio of peptide/PEG-PE. Then the peptide containing micelle were prepared as described in […]

[4] = target: T1, TLR4 (Mus musculus, UniProt Q9JHF9+Q9QUK6); experiment: M-MPLA activity assay in serum free medium or under LBP-blocking condition; type: cell-based, mouse (RAW264.7 cells); details: RAW264.7 cells, 2 h, serum-free medium or 100 μg/ml LBPK95A, ELISA
T1 construct: endogenous in cells; host or cells: RAW264.7 (mouse macrophage-like cell line)
T1 sequence (Q9JHF9 19-160): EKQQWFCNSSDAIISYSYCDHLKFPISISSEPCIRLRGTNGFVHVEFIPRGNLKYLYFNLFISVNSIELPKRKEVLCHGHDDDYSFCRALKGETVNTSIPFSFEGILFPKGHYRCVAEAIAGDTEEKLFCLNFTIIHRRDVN
T1 sequence (Q9QUK6 26-835): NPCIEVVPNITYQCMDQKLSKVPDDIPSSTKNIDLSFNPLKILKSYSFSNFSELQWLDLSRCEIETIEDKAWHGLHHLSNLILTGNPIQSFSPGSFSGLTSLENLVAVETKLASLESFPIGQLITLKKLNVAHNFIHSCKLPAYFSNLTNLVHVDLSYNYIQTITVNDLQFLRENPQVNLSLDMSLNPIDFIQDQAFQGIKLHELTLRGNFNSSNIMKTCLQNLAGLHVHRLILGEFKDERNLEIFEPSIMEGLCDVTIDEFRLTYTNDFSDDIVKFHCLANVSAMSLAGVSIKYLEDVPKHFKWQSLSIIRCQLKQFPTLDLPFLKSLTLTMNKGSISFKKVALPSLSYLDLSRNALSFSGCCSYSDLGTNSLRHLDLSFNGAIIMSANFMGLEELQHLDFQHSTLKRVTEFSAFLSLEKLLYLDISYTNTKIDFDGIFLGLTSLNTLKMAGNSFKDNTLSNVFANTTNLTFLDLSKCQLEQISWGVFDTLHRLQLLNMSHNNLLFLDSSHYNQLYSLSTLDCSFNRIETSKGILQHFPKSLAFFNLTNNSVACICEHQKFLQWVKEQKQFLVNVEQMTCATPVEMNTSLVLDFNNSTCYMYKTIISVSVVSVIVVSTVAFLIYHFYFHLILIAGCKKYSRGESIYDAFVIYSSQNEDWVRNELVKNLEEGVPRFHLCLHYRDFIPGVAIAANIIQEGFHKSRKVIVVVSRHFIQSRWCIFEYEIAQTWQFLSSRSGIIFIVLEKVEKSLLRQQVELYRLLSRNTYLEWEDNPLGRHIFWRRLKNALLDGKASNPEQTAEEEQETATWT
Method: (§1) 0.5 mg/ml with deionized water. Particle sizes were shown as intensity-w eight ed diameters. The values were repo rted as the mean ± standard deviation (SD) based on more than three individual measurements performed in triplicate.
(§2) […] RAW264.7 cells were seeded in 24-well plates overnight. Then, the cells were treated with 10, 100, 1000ng/ml MPLA, M-MPLA, Lipo/MPLA, PLA/MPLA, or PEG 2000 -DPG (1,2-dipalmitate-sn-gl yc e r o -3- O-[(polyethylene glycol)-2000]) micellized MPLA (DP-M-MP LA), PEG 2000 -L-DPG (1,2-dipalmitate-sn-gl yc e r o -3-(6-amido-2-aminohexanoyl ox y)-N-[(polyethylene glycol)-2000]) micellized MPLA (N-M-MPLA), respectively for 2 h prior to harvesting the supernatant. TLR4 activation was measured by the cumulative production of TNF-α using the mouse TNF-α ELISA kit (eBios cience, San Diego, CA, USA).
(§3) M-MPL A activity assay in serum f ree mediu m or under LBP-blocking condition RAW264.7 cells were seeded and cultured overnight. Then the cells were either treated (1) with s erum-free medium (S FM) or (2) with LBP-blocking pepti de. (1): The cells were washed with SFM three times before experiment, then treated with 100ng/ml MP LA, M-MP LA, or LPS in the p resen ce o r abs ence of serum respectivel y; (2):The cells were treated with or without LBPK95A (LBPK95A sequence:
(§4) added and incubated for 2h prior to harvesting the supernatant. TLR4 activation was […]

[5] = cited from earlier work
Excerpt: Both MPLA and LPS have very low critical micelle concentration to tend to form the micelle at 10^−9 mol concentration. Only their monomers can bind to the TLR4/MD-2 heterodimers, and after binding, two TLR4/MD-2 heterodimers form the TLR4/MD-2 heterotetramers for signaling transduction. As a chaperon, LBP in serum can induce disassembly of MPLA and LPS, and then transfer them with CD14 to their receptors (Supplementary Figure S3A; [36]). […] However, as a detoxic form of LPS, the adjuvant activity is also attenuated. […] One reason of PEG-PE micelles accounting for these may be its monomerization of MPLA. MPLA, as well as LPS, has very low critical micelle concentration (~10^−9 M), thus are usually present as aggregates [[32], ...

[6] = target: T1, TLR4; experiment: MPLA activity assay (TNF-α ELISA); type: cell-based, mouse (RAW264.7 cells); details: RAW264.7 cells, 2 h, mean±s.d. n=4
Method: as §1, §2, §3, §4

[7] = target: T2, TLR4/MD-2 (Mus musculus, UniProt Q9JHF9+Q9QUK6); experiment: TLR4/MD-2 heterotetramer formation detection (MTS510 staining); type: cell-based, mouse (RAW264.7 cells); details: RAW264.7 cells, 100 ng/ml, 15 min, 37 °C, flow cytometry
T2 construct: endogenous in cells; host or cells: RAW264.7 (mouse macrophage-like cell line)
T2 sequence (Q9JHF9 19-160): as the sequence (Q9JHF9 19-160) above
T2 sequence (Q9QUK6 26-835): as the sequence (Q9QUK6 26-835) above
Method: measured as describ ed ab ove.
TLR4/MD-2 heterotetramer forma tion detecti on RAW264.7 cells were stimulated with 100ng/ml MPLA, M+MPLA, M -MPLA, or LPS for 15min at 37℃. Then the treated cells were put on ice and washed with PBS.
After blocking with anti- FcγR mAb (2.4G2), the cells were incubated with one of the following antibodies: MTS510 PE, Rat IgG2a K isotype control PE. Finally, the cells were anal yz ed b y flow cyt ometr y (Calibur, BD Bioscience).
Bone marrow dendritic cells (BMDC) g enera tion
BMDCs are generated as described previously 2. Briefly, bone marrow (BM) cells were collected from tibias and femurs of female C57BL/6 mice. At da y 0, 2×10^6 BM cells were cultured in 100mm plate with 10ml complete RPMI 1640 medium containing 200 U/ml rmGM-CSF (PeproTech, Rocky Hill, NJ). At day 3, another 10 ml RPMI 1640 medium containing 200U/ml rmGM-CSF were added. At day 6, the immature BMDCs were collected and read y to us e.
BMDCs or splenocytes from C57BL/6 mice were seeded in 96-well plates and cultured in the presence of 100 ng/ml different MPLA formulations (MPLA, M+MP LA, M- MPLA), or 10 μg empt y PEG -PE micelle. For RNA detection, BMDCs were collected 1h after stimulation. For protein detection, the supernatants were […]

[8] = Circular dichroism (CD) spectroscopy of secondary structure; type: physicochemical; details: free peptide or PEG-PE micellized peptide

N.N.[Cl][Pt][Cl] [cisplatin]
Mice remaining tumor-free at 3 months after treatment [1]: none

Fluorescein isothiocyanate [FITC]
Diffusion from the injection site [2]: mostly stayed and largely retained around the injection sites even 7 days post injection

GQAEPDRAHYNIVTFCCKCD [E7, HPV16 E7_43-62 antigenic peptide, RhB-labeled for imaging]
Intracellular location of RhB-labeled peptide relative to lysosomes / endosomes [3]: contained within lysosomes

Monophosphoryl lipid A [MPLA]
TNF-α secretion in serum-free medium (without LBP) or with LBP-blocking peptide [4]: could not efficiently stimulate macrophage to secret TNF-α
Critical micelle concentration [5]: ~ 10^−9 M
Critical micelle concentration (concentration at which micelles tend to form) [5]: 10^−9 mol
MPLA concentration generating a comparable level of TNF-α [6]: 1 000 ng ml^−1

SGLEQLESIINFEKL [OVA peptide, OVA250-264 antigenic peptide]
Intracellular location of RhB-labeled peptide relative to lysosomes / endosomes [3]: largely outside lysosomes

lipopolysaccharide [LPS]
MTS510 mAb reactive surface TLR4/MD-2 complex [7]: dramatically downregulated MTS510 mAb reactive surface TLR4/MD-2 complex
TNF-α secretion in serum-free medium (without LBP) or with LBP-blocking peptide [4]: could not efficiently stimulate macrophage to secret TNF-α
Critical micelle concentration [5]: ~ 10^−9 M
Critical micelle concentration (concentration at which micelles tend to form) [5]: 10^−9 mol

salmon calcitonin [sCT]
Intracellular location of RhB-labeled peptide relative to lysosomes / endosomes [3]: contained within lysosomes
Secondary structure by CD spectroscopy [8]: non-α-helical peptides
